# From patent US20220402916A1, “SMALL MOLECULE INHIBITORS OF KRAS G12C MUTANT” (Merck Sharp & Dohme Corp., priority 2019, published 2022)
# Assays:
# [1] = biological target: T1, Biotinylated KRAS G12C protein (Homo sapiens, UniProt P01116, C118S/C51S/C80L/G12C); experiment: SOS-catalyzed nucleotide exchange assay; assay type: biochemical; conditions: apparent potency; preincubation time of 60 minutes prior to addition of SOS
# T1 construct: 183 amino acids; biotin on K10
# NCI-H358 cells = experiment: Cellular phospho-ERK assay; assay type: cell-based; conditions: Homo sapiens, NCI-H358, 2 h, NCI-H358 cells; 2 hour incubation; ratio of p-Erk vs total Erk; read-out: IC50
# Description: NCI-H358 cells (ATCC® CRL-5807™) were cultured in T150 flask in growth medium (RPMI medium 1640-GlutaMAX™-1 (ThermoFisher Scientific 61870) containing 10% fetal bovine serum (ThermoFisher Scientific 10091148)). The cells were harvested in growth medium after TrypLE (ThermoFisher scientific 12604021) digestion and were seeded in 384-well collagen coated cell culture plate (Corning 356702) at a density of 15,000 cells/well, and incubated at 37° C., 5% CO2 overnight. The compound dose-response titrations were prepared and appropriate amounts of compounds were dispensed in 384-well intermediate plate using Echo 550 liquid handler. RPMI medium 1640-GlutaMAX™-I were added to the intermediate plate and transferred to 384-well cell culture plate, which was incubated at 37° C., 5% CO2 for 2 hours. After removal of medium from the plate, cells were lysed in lysis buffer from Alpha SureFire® Ultra™ Multiplex p-Erk and total Erk assay kit (PerkinElmer MPSU-PTERK) containing Halt™ Protease and Phosphotase inhibitor cocktail (ThermoFisher Scientific 78446) at room temperature with constant shaking at 300 rpm for 30 minutes. The cell lysates were then transferred to OptiPlate-384 plate (PerkinElmer 6005620) and the phosphorylation of Erk and total Erk levels were detected by Alpha SureFire Ultra Multiplex p-Erk kit (PerkinElmer MPSU-PTERK) following the manufacturer's protocol. Assay plates were read on an EnVision Multimode Plate Reader (PerkinElmer) and the ratio of p-Erk vs total Erk in each well was used as the final readout. Dose response curves were analyzed using a 4-parameter logistic model to calculate IC50 values using spotfire software.
# T1 sequence (P01116 with tags, fused parts or gaps isoform P01116-2 G12C/C51S/C80L/C118S): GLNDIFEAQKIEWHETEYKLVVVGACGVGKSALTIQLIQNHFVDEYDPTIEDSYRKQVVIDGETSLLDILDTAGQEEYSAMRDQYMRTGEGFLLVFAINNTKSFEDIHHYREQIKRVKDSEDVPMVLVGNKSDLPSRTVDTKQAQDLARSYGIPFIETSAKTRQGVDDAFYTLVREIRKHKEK
IC50 [1] [nM],IC50 (NCI-H358 cells) [nM],Compound
5.9,433,"C=CC(=O)N1CCN(c2cc(C(=O)N[C@H](C)CN)nc3c2CCN(c2cccc4cccc(C)c24)C3)C[C@@H]1CC#N [Compound 67, 4-((S)-4-acryloyl-3-(cyanomethyl)piperazin-1-yl)-N—((R)-1-aminopropan-2-yl)-7-(8-methylnaphthalen-1-yl)-5,6,7,8-tetrahydro-1,7-naphthyridine-2-carboxamide]"
29,2890,"C=CC(=O)N1CCN(c2cc(C(=O)N[C@H](C)CN3CC(F)(F)C3)nc3c2CCN(c2cccc4cccc(C)c24)C3)C[C@@H]1CC#N [Compound 68, 4-((S)-4-acryloyl-3-(cyanomethyl)piperazin-1-yl)-N—((R)-1-(3,3-difluoroazetidin-1-yl)propan-2-yl)-7-(8-methylnaphthalen-1-yl)-5,6,7,8-tetrahydro-1,7-naphthyridine-2-carboxamide]"
22,2000,"C=CC(=O)N1CCN(c2cc(C(=O)N[C@H](C)CN3CC(O)(C(F)(F)F)C3)nc3c2CCN(c2cccc4cccc(C)c24)C3)C[C@@H]1CC#N [Compound 69, 4-((S)-4-acryloyl-3-(cyanomethyl)piperazin-1-yl)-N-((R)-1-(3-hydroxy-3-(trifluoromethyl)azetidin-1-yl)propan-2-yl)-7-(8-methylnaphthalen-1-yl)-5,6,7,8-tetrahydro-1,7-naphthyridine-2-carboxamide]"
2.2,57,"C=CC(=O)N1CCN(c2cc(C(=O)N[C@H](C)CN3CC(C)(O)C3)nc3c2CCN(c2cccc4cccc(C)c24)C3)C[C@@H]1CC#N [Compound 70, 4-((S)-4-acryloyl-3-(cyanomethyl)piperazin-1-yl)-N-((R)-1-(3-hydroxy-3-methylazetidin-1-yl)propan-2-yl)-7-(8-methylnaphthalen-1-yl)-5,6,7,8-tetrahydro-1,7-naphthyridine-2-carboxamide]"
8.3,1250,"C=C(F)C(=O)N1CCN(c2cc(C(=O)N[C@H](C)CN(C)C)nc3c2CCN(c2cccc4cccc(C)c24)C3)C[C@@H]1CC#N [Compound 78, 4-((S)-3-(cyanomethyl)-4-(2-fluoroacryloyl)piperazin-1-yl)-N-((R)-1-(dimethylamino)propan-2-yl)-7-(8-methylnaphthalen-1-yl)-5,6,7,8-tetrahydro-1,7-naphthyridine-2-carboxamide]"
12,1280,"C=C(F)C(=O)N1CCN(c2cc(C(=O)N[C@H](C)CN(C)C(C)C)nc3c2CCN(c2cccc4cccc(C)c24)C3)C[C@@H]1CC#N [Compound 79, 4-((S)-3-(cyanomethyl)-4-(2-fluoroacryloyl)piperazin-1-yl)-N-((R)-1-(isopropyl(methyl)amino)propan-2-yl)-7-(8-methylnaphthalen-1-yl)-5,6,7,8-tetrahydro-1,7-naphthyridine-2-carboxamide]"
91,6360,"C=CC(=O)N1CCN(c2cc(C(=O)NC[C@@H]3CC(F)(F)CN3)nc3c2CCN(c2cccc4cccc(C)c24)C3)C[C@@H]1CC#N [Compound 80, 4-((S)-4-acryloyl-3-(cyanomethyl)piperazin-1-yl)-N-(((S)-4,4-difluoropyrrolidin-2-yl)methyl)-7-(8-methylnaphthalen-1-yl)-5,6,7,8-tetrahydro-1,7-naphthyridine-2-carboxamide]"
29,2970,"C=CC(=O)N1CCN(c2cc(C(=O)NC[C@H]3CC(F)(F)CN3)nc3c2CCN(c2cccc4cccc(C)c24)C3)C[C@@H]1CC#N [Compound 81, 4-((S)-4-acryloyl-3-(cyanomethyl)piperazin-1-yl)-N-(((R)-4,4-difluoropyrrolidin-2-yl)methyl)-7-(8-methylnaphthalen-1-yl)-5,6,7,8-tetrahydro-1,7-naphthyridine-2-carboxamide]"
90,1600,"C=CC(=O)N1CCN(c2cc(C(=O)N[C@H](C)CN(C)C)nc3c2CCN(c2c(Cl)c(C)cc4[nH]ncc24)C3)CC1 [Compound 83, (R)-4-(4-acryloylpiperazin-1-yl)-7-(5-chloro-6-methyl-1H-indazol-4-yl)-N-(1-(dimethylamino)propan-2-yl)-5,6,7,8-tetrahydro-1,7-naphthyridine-2-carboxamide]"
0.9,96,"C=CC(=O)N1CCN(c2cc(C(=O)N[C@H](C)CN(C)C)nc3c2CCN(c2c(Cl)c(C)cc4[nH]ncc24)C3)C[C@@H]1CC#N [Compound 84, 4-((S)-4-acryloyl-3-(cyanomethyl)piperazin-1-yl)-7-(5-chloro-6-methyl-1H-indazol-4-yl)-N—((R)-1-(dimethylamino)propan-2-yl)-5,6,7,8-tetrahydro-1,7-naphthyridine-2-carboxamide]"
11,1650,"C=CC(=O)N1CCN(c2cc(C(=O)NC[C@H](C)N)nc3c2CCN(c2cccc4cccc(C)c24)C3)C[C@@H]1CC#N [Compound 86, 4-((S)-4-acryloyl-3-(cyanomethyl)piperazin-1-yl)-N—((S)-2-aminopropyl)-7-(8-methylnaphthalen-1-yl)-5,6,7,8-tetrahydro-1,7-naphthyridine-2-carboxamide]"
15,26700,"C=CC(=O)N1CCN(c2cc(C(=O)NC(CN)CN)nc3c2CCN(c2cccc4cccc(C)c24)C3)C[C@@H]1CC#N [Compound 87, (S)-4-(4-acryloyl-3-(cyanomethyl)piperazin-1-yl)-N-(1,3-diaminopropan-2-yl)-7-(8-methylnaphthalen-1-yl)-5,6,7,8-tetrahydro-1,7-naphthyridine-2-carboxamide]"
4.3,1000,"C=CC(=O)N1CCN(c2cc(C(=O)NC3(CN)CC3)nc3c2CCN(c2cccc4cccc(C)c24)C3)C[C@@H]1CC#N [Compound 88, (S)-4-(4-acryloyl-3-(cyanomethyl)piperazin-1-yl)-N-(1-(aminomethyl)cyclopropyl)-7-(8-methylnaphthalen-1-yl)-5,6,7,8-tetrahydro-1,7-naphthyridine-2-carboxamide]"
15,5680,"C=CC(=O)N1CCN(c2cc(C(=O)NCC3(N)CCCCC3)nc3c2CCN(c2cccc4cccc(C)c24)C3)C[C@@H]1CC#N [Compound 89, (S)-4-(4-acryloyl-3-(cyanomethyl)piperazin-1-yl)-N-((1-aminocyclohexyl)methyl)-7-(8-methylnaphthalen-1-yl)-5,6,7,8-tetrahydro-1,7-naphthyridine-2-carboxamide]"
21,2340,"C=CC(=O)N1CCN(c2cc(C(=O)NCC3(N)CCOCC3)nc3c2CCN(c2cccc4cccc(C)c24)C3)C[C@@H]1CC#N [Compound 90, (S)-4-(4-acryloyl-3-(cyanomethyl)piperazin-1-yl)-N-((4-aminotetrahydro-2H-pyran-4-yl)methyl)-7-(8-methylnaphthalen-1-yl)-5,6,7,8-tetrahydro-1,7-naphthyridine-2-carboxamide]"
12,7860,"C=CC(=O)N1CCN(c2cc(C(=O)NCC3(N)CCCCCC3)nc3c2CCN(c2cccc4cccc(C)c24)C3)C[C@@H]1CC#N [Compound 91, (S)-4-(4-acryloyl-3-(cyanomethyl)piperazin-1-yl)-N-((1-aminocycloheptyl)methyl)-7-(8-methylnaphthalen-1-yl)-5,6,7,8-tetrahydro-1,7-naphthyridine-2-carboxamide]"
20,7200,"C=CC(=O)N1CCN(c2cc(C(=O)NCCC3(N)CCCCC3)nc3c2CCN(c2cccc4cccc(C)c24)C3)C[C@@H]1CC#N [Compound 92, (S)-4-(4-acryloyl-3-(cyanomethyl)piperazin-1-yl)-N-(2-(1-aminocyclohexyl)ethyl)-7-(8-methylnaphthalen-1-yl)-5,6,7,8-tetrahydro-1,7-naphthyridine-2-carboxamide]"
1840,24400,"C=CC(=O)N1CCN(c2cc(C(=O)Nc3ccccc3N3CCNCC3)nc3c2CCN(c2cccc4cccc(C)c24)C3)C[C@@H]1CC#N [Compound 93, (S)-4-(4-acryloyl-3-(cyanomethyl)piperazin-1-yl)-7-(8-methylnaphthalen-1-yl)-N-(2-(piperazin-1-yl)phenyl)-5,6,7,8-tetrahydro-1,7-naphthyridine-2-carboxamide]"
12,6630,"C=CC(=O)N1CCN(c2cc(C(=O)Nc3ccccc3CN)nc3c2CCN(c2cccc4cccc(C)c24)C3)C[C@@H]1CC#N [Compound 94, (S)-4-(4-acryloyl-3-(cyanomethyl)piperazin-1-yl)-N-(2-(aminomethyl)phenyl)-7-(8-methylnaphthalen-1-yl)-5,6,7,8-tetrahydro-1,7-naphthyridine-2-carboxamide]"
